Assay results taken from US5356907A, “1-cycloalkylpyridones as analgesics” (priority 1989, dated 1994).

Columns and labels:
cardiac rhythm disorders = experiment: Anti-arythmic action in the rat (aconitine perfusion); format: in vivo; conditions: intravenous, 5 minutes before aconitine 10 micrograms/mn, anaesthetised male rat
Experimental: 2) Anti-arythmic action in the rat
Male rate weighing 300-350 g anaesthetised by interperitonal route using 1.20 g/kg of urethane are tracheotomized and subjected to artificial respiration (40-50 insufflations of 3 ml/minute).
needles are implanted subcutaneously so as to record the rats' electrocardiogram on the DII derivation signal.
The test products are administered by intravenous route. Five minutes after administration of the product, the jugular vein is perfused with aconitine at the rate of 10 micrograms/mn and the time taken for the appearance of cardiac rhythm disorders is noted.
The results are expressed as a percentage of the increase in the time taken for cardiac rhythm disorders to appear relative to the controls and according to the dose of the test product.

opiated K Receptor = biological target: T1, opiated K Receptor (Cavia porcellus, UniProt P41144); experiment: Bonding to the opiated K Receptor in Vitro; format: binding; conditions: displacement of 1 nM 3H-ethylketocyclazocin, guinea pig brain membranes, Tris pH 7.7, 25° C., 40 minutes
T1 construct: Membrane samples preserved at -30° C; (optionally for approximately 30 days) are used and prepared from guinea pig brains; from tissue; host or cells: guinea pig brain membranes
Experimental: 1) Bonding to the opiated K Receptor in Vitro
Membrane samples preserved at -30° C. (optionally for approximately 30 days) are used and prepared from guinea pig brains.
These samples are put in suspension in Tris pH 7.7 buffer. Fractions of 2 cm^3 are distributed in hemolysis tubes and 1 nM of 9^3 H-ethylketocyclazocin and the product to be studied are added. The product is first tested at 5×10^-6 M (in triplicate). When the test product displaces more than 50% of the radioactivity linked specifically to the receptor, it is tested again according to a range of 7 doses so as to determine the dose that inhibits 50% of the radioactivity linked specifically to the receptor. Thus the 50% inhibiting concentration is determined.
The non-specific bond is determined by the addition of known product under the name U-50488 H (Lahti et al. 1982, Life Sci. 31, 2257) at 10^-5 M (in triplicate). After incubating at 25° C. for 40 minutes, returning to the water bath at 0° C. for 5 minutes, filtering under vacuum, rinsing with Tris pH 7.7 buffer, the radioactivity is counted in the presence of Trition scintillator.
The result is expressed directly as 50% inhibiting concentration (IC50), namely as the concentration of studied product expressed in nM, necessary to displace 50% of the radioactivity specifically fixed on the studied receptor.

T1 sequence (P41144 whole entry): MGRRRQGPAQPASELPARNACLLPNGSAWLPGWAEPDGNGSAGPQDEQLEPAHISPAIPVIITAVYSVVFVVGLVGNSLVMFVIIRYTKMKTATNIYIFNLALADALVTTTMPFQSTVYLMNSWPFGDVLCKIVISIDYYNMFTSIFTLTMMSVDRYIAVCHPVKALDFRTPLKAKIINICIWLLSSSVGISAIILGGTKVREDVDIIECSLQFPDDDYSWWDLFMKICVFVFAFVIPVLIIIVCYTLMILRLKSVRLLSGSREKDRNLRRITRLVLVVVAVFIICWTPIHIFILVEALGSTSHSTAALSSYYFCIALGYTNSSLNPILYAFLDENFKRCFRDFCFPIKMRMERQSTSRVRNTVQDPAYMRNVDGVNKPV

| SMILES | Percentage increase in time (taken for cardiac rhythm disorders to appear relative to the controls) (cardiac rhythm disorders; dose 2.5 mg/kg) [%] | Percentage increase in time (taken for cardiac rhythm disorders to appear relative to the controls) (cardiac rhythm disorders; dose 5 mg/kg) [%] | IC50 (opiated K Receptor) [nM] | Percentage increase in time (taken for cardiac rhythm disorders to appear relative to the controls) (cardiac rhythm disorders; dose 2.5 mg/kg, 2.5 mg/kg) [%] | Percentage increase in time (taken for cardiac rhythm disorders to appear relative to the controls) (cardiac rhythm disorders; dose 5 mg/kg, 5 mg/kg) [%] |
| --- | --- | --- | --- | --- | --- |
| O=C1C(c2ccc(Cl)c(Cl)c2)=CCCN1[C@@H]1CCCC[C@H]1N1CCCC1 (relative stereo) [Example 3, [Trans, (±)]-3-(3,4-dichlorophenyl)-5,6-dihydro-1-[2-(1-pyrrolidinyl)cyclohexyl)-2-(1H)-pyridinone] | 52 | 55 | – | – | – |
| COc1ccc(C2C(=O)CCN([C@@H]3CCCC[C@H]3N3CCCC3)C2=O)cc1OC (mixture of isomers) [Example 7, [Trans,(±)]-3-(3,4-dimethoxy-phenyl)-1-[2-(1-pyrrolidinyl)-cyclohexyl]-2,4-piperidinedione] | – | – | 0.2 | – | – |
| COc1ccc(C2=CCCN([C@@H]3CCCC[C@H]3N3CCCC3)C2=O)cc1OC (relative stereo) [Example 8, [Trans-(±)]-5,6-dihydro-3-(3,4-dimethoxyphenyl)-1-[2(1-pyrrolidinyl)-cyclohexyl]-2-[1H)-pyridinone] | – | – | 9 | – | – |
| O=C1C(c2ccc(Cl)c(Cl)c2)CCCN1[C@@H]1CCCC[C@H]1N1CCCC1 (mixture of isomers) [Example 4, [Trans, (±)]-3-(3,4-dichlorophenyl)-1-[2-(1-pyrrolidinyl)-cyclohexyl]-2piperidinone] | – | – | 22 | 23 | 48 |
| O=C1C(c2ccc(Cl)c(Cl)c2)CCCN1[C@@H]1CCCC[C@H]1N1CCCC1 (mixture of isomers) [Example 5, [Trans, (±)]-3-(3,4-dichlorophenyl)-1-[2-(1-pyrrolidinyl)-cyclohexyl]-2-piperidinone] | – | – | – | 26 | 33 |
